Measurements from patent EP0935965A1, “ANTIPYLORI AGENT” (TORAY INDUSTRIES, INC., priority 1996, dated 1997).
Where a SMILES comes first, the peptide text is derived from it.

Test system: acetic acid ulcer
Experiment: Healing accelerating action on acetic acid ulcer of rat
Type: in vivo, Sprague Dawle rats
Procedure: 15 Sprague Dawle rats each having a weight of about 220 g were used, and a gastric ulcer was experimentally formed in each of the rats. A gastric ulcer was formed by exposing the gastric anterior wall of each of the rats by ventrotomy under etherization, and injecting 0.03 ml of 20% acetic acid into the submucous layer in the boundary between the fundus glands and the pyloric glands of the gastric anterior wall by a Hamilton microsyringe in accordance with the method of Okabe et al., closing the stomach, and then feeding for 7 days in a normal manner.
On the seventh day, five rats were sacrificially killed, and the stomachs were extracted therefrom. The residual 10 rats were divided into two groups consisting of 5 rats each and used as a control group administered with physiologic saline and an experimental group administered with PR-39.
The rats in the control group and the experimental group were intraperitoneally administered with 1 ml of physiologic saline and 0.8 mg/ml of PR-39, respectively, once a day. After administration of physiologic saline or PR-39 for 7 days, the stomach was extracted from each of the rats on the day after final administration (14 days after acetic acid administration).
In each of the extracted stomachs, the pyloric ring and the esophagogastric junction were clamped, and 10 ml of 70% alcohol was injected into the stomach, followed by fixing. The stomach was cut along the curvatura ventriculi major to expose the gastric mucosal surface, and the gastric ulcer formed was visually observed to measure the surface area thereof.
Successively, a central portion of the gastric ulcer was cut out in parallel to the curvatura ventriculi minor, embedded in paraffin, and then stained with HE to histologically examine the formed gastric ulcer.
The examination terms included the length of each of the gastric ulcer, and the thickness of the granulation of the ulcer bottom thereof.

[1] = 14 days after acetic acid, histological observation, PR-39 0.8 mg/ml intraperitoneally once a day for 7 days

CC[C@H](C)[C@H](NC(=O)[C@H](CCCNC(=N)N)NC(=O)[C@@H]1CCCN1C(=O)[C@@H]1CCCN1C(=O)[C@H](CC(C)C)NC(=O)[C@H](CCCNC(=N)N)NC(=O)[C@@H]1CCCN1C(=O)[C@@H]1CCCN1C(=O)[C@H](Cc1ccccc1)NC(=O)[C@H](Cc1ccccc1)NC(=O)[C@@H]1CCCN1C(=O)[C@@H]1CCCN1C(=O)[C@@H]1CCCN1C(=O)[C@H](CCCNC(=N)N)NC(=O)[C@@H]1CCCN1C(=O)[C@H](CCCNC(=N)N)NC(=O)[C@@H]1CCCN1C(=O)[C@H](CC(C)C)NC(=O)[C@H](Cc1ccc(O)cc1)NC(=O)[C@@H]1CCCN1C(=O)[C@@H]1CCCN1C(=O)[C@H](CCCNC(=N)N)NC(=O)[C@@H]1CCCN1C(=O)[C@H](CCCNC(=N)N)NC(=O)[C@H](CCCNC(=N)N)NC(=O)[C@@H](N)CCCNC(=N)N)C(=O)N1CCC[C@H]1C(=O)N1CCC[C@H]1C(=O)NCC(=O)N[C@@H](Cc1ccccc1)C(=O)N1CCC[C@H]1C(=O)N1CCC[C@H]1C(=O)N[C@@H](CCCNC(=N)N)C(=O)N[C@@H](Cc1ccccc1)C(=O)N1CCC[C@H]1C(=O)N1CCC[C@H]1C(=O)N[C@@H](CCCNC(=N)N)C(=O)N[C@@H](Cc1ccccc1)C(=O)N1CCC[C@H]1C(N)=O [PR-39, proline arginine rich peptide-39] (H-RRRPRPPYLPRPRPPPFFPPRLPPRIPPGFPPRFPPRFP-NH2; N-terminus and C-terminus assumed)
Ulcer surface area (14 days after acetic acid, PR-39 0.8 mg/ml intraperitoneally once a day for 7 days): 2.82 ± 1.96 mm2; average±SEM
visual observation of gastric mucosa (14 days after acetic acid, compared with the control group (physiologic saline)): ulcer scar accompanied with concentration of the mucosal folds of gallbladder was observed
Diameter of ulcer [1]: 1.58 ± 0.49 mm
Thickness of granulation tissue [1]: 1.39 ± 0.59 mm
ulcer area as compared with the control group (PR-39 administered every day in the healing stage (7th to 14th day)): significantly decreased
thickness of granulation at the ulcer bottom (PR-39 administration): significantly decreased
length of an ulcer (histological observation) (PR-39 administration group): significantly decreased
